In PubChem BioAssay AID330 (DTP/NCI, 2004):
Several values for one entry are separate records, joined by “and”; a condition that tells them apart may be missing. Identical values can stand only once. Toxic doses and inconclusive results are not listed. Square brackets hold non-standard residues; d marks the D form. Peptide text beside a SMILES is read from it. Ac5c = NC1(C(=O)O)CCCC1

Test system: P388 leukemia ip, CD2F1 mice, survival T/C
Assay: NCI In Vivo Anticancer Drug Screen. Data for tumor model P388 Leukemia (intraperitoneal) in CD2F1 (CDF1) mice
Details: endpoint: median survival time, higher = longer survival
Method in brief: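 Mice carrying the transplanted tumor received test compound or vehicle. Survival was recorded in each group, and the value is the treated-group measurement divided by that of the vehicle-treated control group.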

[1] = dose: 50.0 mg/kg/injection, schedule: Q01DX009 (ip), vehicle: saline with Tween-80
[2] = dose: 100.0 mg/kg/injection, schedule: Q04DX003 (ip), vehicle: Klucel (hydroxypropylcellulose) (HPC)
[3] = dose: 200.0 mg/kg/injection, schedule: Q04DX003 (ip), vehicle: Klucel (hydroxypropylcellulose) (HPC)
[4] = dose: 400.0 mg/kg/injection, schedule: Q04DX003 (ip), vehicle: Klucel (hydroxypropylcellulose) (HPC)
[5] = dose: 12.5 mg/kg/injection, schedule: Q01DX009 (ip), vehicle: saline
[6] = dose: 25.0 mg/kg/injection, schedule: Q01DX009 (ip), vehicle: saline
[7] = dose: 50.0 mg/kg/injection, schedule: Q01DX009 (ip), vehicle: saline
[8] = dose: 50.0 mg/kg/injection, schedule: Q01DX009 (ip), vehicle: Klucel (hydroxypropylcellulose) (HPC)
[9] = dose: 100.0 mg/kg/injection, schedule: Q01DX009 (ip), vehicle: Klucel (hydroxypropylcellulose) (HPC)
[10] = dose: 200.0 mg/kg/injection, schedule: Q01DX009 (ip), vehicle: Klucel (hydroxypropylcellulose) (HPC)
[11] = dose: 100.0 mg/kg/injection, schedule: Q01DX009 (ip), vehicle: saline
[12] = dose: 200.0 mg/kg/injection, schedule: Q01DX009 (ip), vehicle: saline

CC12CCC3(CO3)CC1CCC1C2CCC2(C)C1CCC21CO1 (centres undefined)
T/C (dose: 100.0 mg/kg/injection, schedule: Q01DX001 (ip), vehicle: saline with Tween-80): 102 % of control
T/C (dose: 200.0 mg/kg/injection, schedule: Q01DX001 (ip), vehicle: saline with Tween-80): 99 % of control
T/C (dose: 400.0 mg/kg/injection, schedule: Q01DX001 (ip), vehicle: saline with Tween-80): 88 % of control

COC1C(C)OC(OC2CC(C)(O)Cc3cc4c(c(O)c32)C(=O)c2c(O)cc3c(c2C4=O)OC2OC3(C)C(O)C(N(C)C)C2O)C(OC)C1(C)OC (centres undefined)
T/C (dose: 0.6 mg/kg/injection, schedule: Q01DX009 (ip), vehicle: other): 124 % of control
T/C (dose: 0.75 mg/kg/injection, schedule: Q04DX003 (ip), vehicle: saline): 121 % of control
T/C (dose: 1.0 mg/kg/injection, schedule: Q01DX009 (ip), vehicle: saline): 151 % of control
T/C (dose: 1.0 mg/kg/injection, schedule: Q04DX003 (ip), vehicle: saline): 121 % of control
T/C (dose: 1.25 mg/kg/injection, schedule: Q01DX009 (ip), vehicle: other): 151 % of control
T/C (dose: 1.25 mg/kg/injection, schedule: Q04DX003 (ip), vehicle: other): 124 % of control
T/C (dose: 1.5 mg/kg/injection, schedule: Q01DX009 (ip), vehicle: saline): 160 % of control
T/C (dose: 2.0 mg/kg/injection, schedule: Q01DX009 (ip), vehicle: saline): 160 % of control
T/C (dose: 2.5 mg/kg/injection, schedule: Q01DX009 (ip), vehicle: saline): 174 % of control
T/C (dose: 2.5 mg/kg/injection, schedule: Q04DX003 (ip), vehicle: other): 153 % of control
T/C (dose: 3.0 mg/kg/injection, schedule: Q01DX009 (ip), vehicle: saline): 169 % of control
T/C (dose: 4.0 mg/kg/injection, schedule: Q01DX009 (ip), vehicle: saline): 180 % of control
T/C (dose: 5.0 mg/kg/injection, schedule: Q01DX009 (ip), vehicle: saline): 193 % of control
T/C (dose: 5.0 mg/kg/injection, schedule: Q04DX003 (ip), vehicle: saline): 150 % of control
T/C (dose: 6.0 mg/kg/injection, schedule: Q04DX003 (ip), vehicle: water): 153 % of control
T/C (dose: 10.0 mg/kg/injection, schedule: Q04DX003 (ip), vehicle: other): 165 % of control
T/C (dose: 10.0 mg/kg/injection, schedule: Q04DX003 (ip), vehicle: saline with Tween-80): 157 % of control
T/C (dose: 10.0 mg/kg/injection, schedule: Q04DX003 (ip), vehicle: saline): 156 % of control
T/C (dose: 10.0 mg/kg/injection, schedule: Q04DX003 (ip), vehicle: water): 157 % of control
T/C (dose: 12.0 mg/kg/injection, schedule: Q04DX003 (ip), vehicle: saline): 158 % of control
T/C (dose: 12.5 mg/kg/injection, schedule: Q01DX001 (sc), vehicle: other): 103 % of control
T/C (dose: 15.0 mg/kg/injection, schedule: Q04DX003 (ip), vehicle: saline with Tween-80): 150 % of control
T/C (dose: 16.0 mg/kg/injection, schedule: Q04DX003 (ip), vehicle: saline): 112 % of control
T/C (dose: 20.0 mg/kg/injection, schedule: Q04DX003 (ip), vehicle: other): 124 % of control
T/C (dose: 25.0 mg/kg/injection, schedule: Q01DX001 (ip), vehicle: other): 157 % of control and 175 % of control
T/C (dose: 25.0 mg/kg/injection, schedule: Q01DX001 (sc), vehicle: other): 100 % of control and 102 % of control
T/C (dose: 50.0 mg/kg/injection, schedule: Q01DX001 (sc), vehicle: other): 103 % of control and 105 % of control
T/C (dose: 100.0 mg/kg/injection, schedule: Q01DX001 (sc), vehicle: other): 99 % of control
T/C (dose: 625.0 micrograms/kg/injection, schedule: Q01DX009 (ip), vehicle: other): 118 % of control
T/C (dose: 1250.0 micrograms/kg/injection, schedule: Q01DX009 (ip), vehicle: other): 157 % of control
T/C (dose: 2500.0 micrograms/kg/injection, schedule: Q01DX009 (ip), vehicle: other): 157 % of control and 172 % of control
T/C (dose: 5000.0 micrograms/kg/injection, schedule: Q01DX009 (ip), vehicle: other): 90 % of control

C(=C\CN1CCOCC1)/Cc1cccnc1
T/C (dose: 3.12 mg/kg/injection, schedule: Q01DX009 (ip), vehicle: saline with Tween-80): 99 % of control and 100 % of control
T/C (dose: 6.25 mg/kg/injection, schedule: Q01DX009 (ip), vehicle: saline with Tween-80): 100 % of control
T/C (dose: 12.5 mg/kg/injection, schedule: Q01DX009 (ip), vehicle: saline with Tween-80): 100 % of control and 104 % of control
T/C (dose: 25.0 mg/kg/injection, schedule: Q01DX009 (ip), vehicle: saline with Tween-80): 100 % of control (2×) and 102 % of control
T/C [1]: 103 % of control and 109 % of control

NC1(C(=O)NCC(=O)O)CCCC1 (H-[Ac5c]-Gly-OH)
T/C (dose: 50.0 mg/kg/injection, schedule: Q04DX003 (ip), vehicle: Klucel (hydroxypropylcellulose) (HPC)): 99 % of control
T/C [2]: 99 % of control
T/C [3]: 97 % of control
T/C [4]: 112 % of control

COc1ccc(C2=C(Cl)C(=O)N(c3ccccc3OC)C(=O)C2(Cl)Cl)cc1
T/C [2]: 107 % of control
T/C [3]: 103 % of control
T/C [4]: 98 % of control

O=C(NC1CCCCC1)C1C(=O)C(=O)N(C2CCCCC2)C1=O (centres undefined)
T/C (dose: 50.0 mg/kg/injection, schedule: Q01DX005 (ip), vehicle: saline with Tween-80): 105 % of control
T/C (dose: 100.0 mg/kg/injection, schedule: Q01DX005 (ip), vehicle: saline with Tween-80): 98 % of control

c1ccc(-n2ccnc2C2C3CCN2CC3)cc1 (centres undefined)
T/C [5]: 104 % of control
T/C [6]: 104 % of control
T/C [7]: 111 % of control and 97 % of control

O=C1C=CC(=Nc2ccc(N(CCCl)CCCl)cc2)C=C1
T/C [8]: 89 % of control
T/C [9]: 89 % of control

CN(C)CCCN1C=CC(=C2C(=O)c3ccccc3C2=O)C=C1
T/C [8]: 88 % of control
T/C [9]: 86 % of control
T/C [10]: 97 % of control

CC1=CN2CCC(=O)N=C2C=C1
T/C [7]: 93 % of control
T/C [11]: 90 % of control
T/C [12]: 94 % of control

COc1cccc2c1C(=O)c1c(O)c3c(c(O)c1C2=O)C[C@@](O)(C(=O)COC(=O)Cc1ccccc1)C[C@@H]3OC1CC(N)C(O)C(C)O1 (some centres undefined)
T/C (dose: 1.0 mg/kg/injection, schedule: Q01DX009 (ip), vehicle: saline with Tween-80): 166 % of control and 194 % of control
T/C (dose: 1.32 mg/kg/injection, schedule: Q01DX009 (ip), vehicle: saline sonified): 195 % of control
T/C (dose: 2.0 mg/kg/injection, schedule: Q01DX009 (ip), vehicle: saline sonified): 215 % of control
T/C (dose: 2.0 mg/kg/injection, schedule: Q01DX009 (ip), vehicle: saline with Tween-80): 151 % of control and 166 % of control and 212 % of control
T/C (dose: 3.0 mg/kg/injection, schedule: Q01DX009 (ip), vehicle: saline sonified): 270 % of control
T/C (dose: 16.0 mg/kg/injection, schedule: Q01DX009 (ip), vehicle: saline with Tween-80): 105 % of control

CCCCCCCCCCCCCCCCCCCCN1CCOCC1
T/C [5]: 102 % of control
T/C [6]: 107 % of control
T/C [1]: 92 % of control
T/C [7]: 101 % of control and 97 % of control
T/C (dose: 100.0 mg/kg/injection, schedule: Q01DX009 (ip), vehicle: saline with Tween-80): 90 % of control
T/C [11]: 100 % of control
T/C [12]: 90 % of control

CC1(O)C=CP(C)(=O)C1 (centres undefined)
T/C [5]: 108 % of control
T/C [6]: 110 % of control
T/C [7]: 111 % of control
T/C [11]: 100 % of control
T/C [12]: 86 % of control

COc1cc(C(C)c2cc3c(cc2OCCO)OCO3)cc(OC)c1OC (centres undefined)
T/C (dose: 25.0 mg/kg/injection, schedule: Q01DX005 (ip), vehicle: saline with Tween-80): 92 % of control and 94 % of control
T/C (dose: 400.0 mg/kg/injection, schedule: Q01DX005 (ip), vehicle: saline with Tween-80): 161 % of control and 180 % of control

Cn1cnc([N+](=O)[O-])c1Sc1cn(C2CC(O)C(CO)O2)c(=O)[nH]c1=O (centres undefined)
T/C (dose: 60.0 mg/kg/injection, schedule: Q01DX005 (ip), vehicle: Klucel (hydroxypropylcellulose) (HPC)): 101 % of control
T/C (dose: 120.0 mg/kg/injection, schedule: Q01DX005 (ip), vehicle: Klucel (hydroxypropylcellulose) (HPC)): 102 % of control
T/C (dose: 240.0 mg/kg/injection, schedule: Q01DX005 (ip), vehicle: Klucel (hydroxypropylcellulose) (HPC)): 107 % of control

O=C1c2sccc2[C@H](NC(=O)C(F)(F)F)[C@@H]1Cl
T/C (dose: 60.0 mg/kg/injection, schedule: Q01DX005 (ip), vehicle: saline with Tween-80): 100 % of control
T/C (dose: 120.0 mg/kg/injection, schedule: Q01DX005 (ip), vehicle: saline with Tween-80): 100 % of control
T/C (dose: 240.0 mg/kg/injection, schedule: Q01DX005 (ip), vehicle: saline with Tween-80): 100 % of control

O=P(c1ccccc1)(c1ccccc1)C(O)c1cccs1 (centres undefined)
T/C [8]: 90 % of control
T/C [9]: 88 % of control
T/C [10]: 92 % of control
